In patent US12150995B2, “IRAK degraders and uses thereof” (Kymera Therapeutics, Inc., priority 2020, dated 2024):

Molecular target: T1, IRAK4 (Homo sapiens, UniProt Q9NWZ3)
T1 construct: endogenous in cells; host or cells: OCI-LY10
T1 sequence (Q9NWZ3 1-460): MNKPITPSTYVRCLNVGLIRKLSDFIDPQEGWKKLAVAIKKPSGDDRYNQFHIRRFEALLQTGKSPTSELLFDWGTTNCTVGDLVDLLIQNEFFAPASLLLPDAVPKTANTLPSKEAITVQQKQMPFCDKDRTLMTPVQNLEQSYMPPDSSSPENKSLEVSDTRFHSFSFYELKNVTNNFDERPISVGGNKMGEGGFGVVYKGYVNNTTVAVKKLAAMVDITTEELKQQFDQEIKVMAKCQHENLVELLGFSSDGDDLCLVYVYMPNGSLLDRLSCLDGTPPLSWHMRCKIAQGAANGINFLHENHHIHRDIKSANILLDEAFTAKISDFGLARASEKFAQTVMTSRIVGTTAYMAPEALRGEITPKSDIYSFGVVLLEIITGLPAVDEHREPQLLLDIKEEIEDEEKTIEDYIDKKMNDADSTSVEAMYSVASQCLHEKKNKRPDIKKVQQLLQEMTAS
Test: IRAK4 MSD Degradation in OCI-LY10
Assay type: cell-based
Details: OCI-LY10 cells, Meso Scale Discovery, incubated 4 to 24 hours
In short: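 IRAK4 degradation was quantified by Meso Scale electrochemiluminescence (anti-IRAK4 capture and detection antibodies) in lysates of treated OCI-LY10 cells. Compounds were dosed at 8 concentrations (1:3 dilutions, top 1 to 10 μM) for 4 to 24 h; DC50 derived by three-parameter logistic fitting.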

| SMILES | DC50 |
| --- | --- |
| CC(C)(O)c1cc2nc([C@H]3CC[C@H](C(=O)N4CCN(CCNc5cccc6c5C(=O)N(C5CCC(=O)NC5=O)C6=O)CC4)CC3)sc2cc1NC(=O)c1cncc(C#N)c1 (stereo partly drawn) [I-431] | > 200 nM |
| Cc1cccc(C(=O)Nc2cc3sc([C@H]4CC[C@H](CN5C[C@H]6C[C@@H]5CN6CCCNc5cccc6c5C(=O)N(C5CCC(=O)NC5=O)C6=O)CC4)nc3cc2C(C)(C)O)n1 (stereo partly drawn) [I-432] | 100 to 200 nM |
| COc1cc2nc([C@H]3CC[C@H](CN(C)CCCCNc4cccc5c4C(=O)N(C4CCC(=O)NC4=O)C5=O)CC3)sc2cc1NC(=O)c1cccc(C#N)n1 (stereo partly drawn) [I-433] | 10 to 50 nM |
| CC(C)(O)c1cc2nc([C@H]3CC[C@H](C(=O)N4CCN(CCNc5cccc6c5C(=O)N(C5CCC(=O)NC5=O)C6=O)CC4)CC3)sc2cc1NC(=O)c1cccc(C#N)n1 (stereo partly drawn) [I-434] | 50 to 100 nM |
| CC(C)(O)c1cc2nc([C@H]3CC[C@H](C(=O)N4CCN(CCCNc5cccc6c5C(=O)N(C5CCC(=O)NC5=O)C6=O)CC4)CC3)sc2cc1NC(=O)c1cccc(C#N)n1 (stereo partly drawn) [I-435] | 10 to 50 nM |
| CC(C)(O)c1cc2nc([C@H]3CC[C@H](C(=O)N4CC5(CC(CCNc6cccc7c6C(=O)N(C6CCC(=O)NC6=O)C7=O)C5)C4)CC3)sc2cc1NC(=O)c1cccc(C#N)n1 (stereo partly drawn) [I-436] | 50 to 100 nM |
| COc1cc2nc([C@H]3CC[C@H](CN(C)CCCCNc4cccc5c4C(=O)N(C4CCC(=O)NC4=O)C5=O)CC3)sc2cc1NC(=O)c1cccc(C)n1 (stereo partly drawn) [I-437] | 10 to 50 nM |
| CC(C)(O)c1cc2nc([C@H]3CC[C@H](CN4CCO[C@@H](CCCNc5cccc6c5C(=O)N(C5CCC(=O)NC5=O)C6=O)C4)CC3)sc2cc1NC(=O)c1cccc(C#N)n1 (stereo partly drawn) [I-438] | 10 to 50 nM |
| Cc1cccc(C(=O)Nc2cc3sc([C@H]4CC[C@H](CN5C[C@@H]6C[C@H]5CN6CCCNc5cccc6c5C(=O)N(C5CCC(=O)NC5=O)C6=O)CC4)nc3cc2C(C)(C)O)n1 (stereo partly drawn) [I-439] | 10 to 50 nM |
| CC(C)(O)c1cc2nc([C@H]3CC[C@H](CN4CCN(CCCNc5cccc6c5C(=O)N(C5CCC(=O)NC5=O)C6=O)CC4)CC3)sc2cc1NC(=O)c1cccc(C#N)n1 (stereo partly drawn) [I-440] | 10 to 50 nM |
| CC(C)(O)c1cc2nc([C@H]3CC[C@H](CN4CCN(CCNc5cccc6c5C(=O)N(C5CCC(=O)NC5=O)C6=O)CC4)CC3)sc2cc1NC(=O)c1cccc(C#N)n1 (stereo partly drawn) [I-441] | 10 to 50 nM |
| CC(C)(O)c1cc2nc([C@H]3CC[C@H](CN4CCO[C@H](CCCNc5cccc6c5C(=O)N(C5CCC(=O)NC5=O)C6=O)C4)CC3)sc2cc1NC(=O)c1cccc(C#N)n1 (stereo partly drawn) [I-442] | 50 to 100 nM |
| C=C/C(NCCCN1CCN(C[C@H]2CC[C@H](c3nc4cc(C(C)(C)O)c(NC(=O)c5cccc(C)n5)cc4s3)CC2)C[C@@H]1C)=C1/C(=O)N(C2CCC(=O)NC2=O)C(=O)/C1=C/C (stereo partly drawn) [I-443] | 10 to 50 nM |
| Cc1cccc(C(=O)Nc2cc3sc([C@H]4CC[C@H](CN(C)CCCCNc5cccc6c5C(=O)N(C5CCC(=O)NC5=O)C6=O)CC4)nc3cc2C(C)(C)O)n1 (stereo partly drawn) [I-444] | 10 to 50 nM |
| CN(CCCCNc1cccc2c1C(=O)N(C1CCC(=O)NC1=O)C2=O)C[C@H]1CC[C@H](c2nc3cc(C(C)(C)O)c(NC(=O)c4cccc(C#N)n4)cc3s2)CC1 (stereo partly drawn) [I-445] | < 10 nM |
| COc1cc2nc([C@H]3CC[C@H](CN(C)CCCCNc4cccc5c4C(=O)N(C4CCC(=O)NC4=O)C5=O)CC3)sc2cc1NC(=O)c1cccc(C(F)(F)F)n1 (stereo partly drawn) [I-446] | 10 to 50 nM |
| CN(CCCCNc1cccc2c1C(=O)N(C1CCC(=O)NC1=O)C2=O)C[C@H]1CC[C@H](c2nc3cc(C(C)(C)O)c(NC(=O)c4cccc(C(F)(F)F)n4)cc3s2)CC1 (stereo partly drawn) [I-447] | < 10 nM |
| CC(C)(O)c1cc2nc([C@H]3CC[C@H](C(=O)N4CC5(CC(CCNc6cccc7c6C(=O)N(C6CCC(=O)NC6=O)C7=O)C5)C4)CC3)sc2cc1NC(=O)c1cncc(C#N)c1 (stereo partly drawn) [I-448] | > 200 nM |
| COc1cncc(C(=O)Nc2cc3sc([C@H]4CC[C@H](CN(C)CCCCNc5cccc6c5C(=O)N(C5CCC(=O)NC5=O)C6=O)CC4)nc3cc2OC)c1 (stereo partly drawn) [I-449] | > 200 nM |
| COc1cncc(C(=O)Nc2cc3sc([C@H]4CC[C@H](CN(C)CCCNc5cccc6c5C(=O)N(C5CCC(=O)NC5=O)C6=O)CC4)nc3cc2OC)c1 (stereo partly drawn) [I-450] | > 200 nM |
| CC(C)(O)c1cc2nc([C@H]3CC[C@H](C(=O)N4CCN(CCCNc5cccc6c5C(=O)N(C5CCC(=O)NC5=O)C6=O)CC4)CC3)sc2cc1NC(=O)c1cncc(C#N)c1 (stereo partly drawn) [I-451] | 50 to 100 nM |
| Cc1cccc(C(=O)Nc2cc3sc([C@H]4CC[C@H](CN5CCN(CCCNc6cccc7c6C(=O)N(C6CCC(=O)NC6=O)C7=O)[C@H](C)C5)CC4)nc3cc2C(C)(C)O)n1 (stereo partly drawn) [I-452] | 10 to 50 nM |
| CC(C)(O)c1cc2nc([C@H]3CC[C@H](CN4CCN(CCNc5cccc6c5C(=O)N(C5CCC(=O)NC5=O)C6=O)CC4)CC3)sc2cc1NC(=O)c1cncc(C#N)c1 (stereo partly drawn) [I-453] | 100 to 200 nM |

| SMILES | DC50 |
| --- | --- |
| CC(C)(O)c1cc2nc([C@H]3CC[C@H](CN4CCO[C@@H](CCCNc5cccc6c5C(=O)N(C5CCC(=O)NC5=O)C6=O)C4)CC3)sc2cc1NC(=O)c1cncc(C#N)c1 (stereo partly drawn) [I-454] | > 200 nM |
| CC(C)(O)c1cc2nc([C@H]3CC[C@H](CN4CCO[C@H](CCCNc5cccc6c5C(=O)N(C5CCC(=O)NC5=O)C6=O)C4)CC3)sc2cc1NC(=O)c1cncc(C#N)c1 (stereo partly drawn) [I-455] | > 200 nM |
| COc1cc2nc([C@H]3CC[C@H](CN(C)CCCCNc4cccc5c4C(=O)N(C4CCC(=O)NC4=O)C5=O)CC3)sc2cc1NC(=O)c1cncc(C#N)c1 (stereo partly drawn) [I-456] | > 200 nM |
| CC(C)(O)c1cc2nc([C@H]3CC[C@H](C(=O)N4CCC5(CC4)CC(CCNc4cccc6c4C(=O)N(C4CCC(=O)NC4=O)C6=O)C5)CC3)sc2cc1NC(=O)c1cccc(C(F)F)n1 (stereo partly drawn) [I-457] | 100 to 200 nM |
| COc1cc2nc([C@H]3CC[C@H](CN(C)CCCNc4cccc5c4C(=O)N(C4CCC(=O)NC4=O)C5=O)CC3)sc2cc1NC(=O)c1cncc(C#N)c1 (stereo partly drawn) [I-458] | > 200 nM |
| COc1cc2nc([C@H]3CC[C@H](CN(C)CCCNc4cccc5c4C(=O)N(C4CCC(=O)NC4=O)C5=O)CC3)sc2cc1NC(=O)c1cncc(C)c1 (stereo partly drawn) [I-459] | > 200 nM |
| COc1cc2nc([C@H]3CC[C@H](CN(C)CCCCNc4cccc5c4C(=O)N(C4CCC(=O)NC4=O)C5=O)CC3)sc2cc1NC(=O)c1cncc(C)c1 (stereo partly drawn) [I-460] | > 200 nM |
| CC(C)(O)c1cc2nc([C@H]3CC[C@H](CN4CC5(CC(CCNc6cccc7c6C(=O)N(C6CCC(=O)NC6=O)C7=O)C5)C4)CC3)sc2cc1NC(=O)c1cncc(C#N)c1 (stereo partly drawn) [I-461] | 10 to 50 nM |
| CC(C)(O)c1cc2nn(-c3ccc(CN4CCC5(CCC(Nc6cccc7c6C(=O)N(C6CCC(=O)NC6=O)C7=O)CC5)CC4)cc3)cc2cc1NC(=O)c1cccc(C(F)(F)F)n1 (stereo not drawn) [I-462] | 100 to 200 nM |
| CN(Cc1ccc(-n2cc3cc(NC(=O)c4cccc(C(F)(F)F)n4)c(C(C)(C)O)cc3n2)cc1)[C@H]1CC[C@H](Nc2cccc3c2C(=O)N(C2CCC(=O)NC2=O)C3=O)CC1 (stereo partly drawn) [I-463] | 10 to 50 nM |
| CN(CCCO[C@H]1C[C@@H](Nc2cccc3c2C(=O)N(C2CCC(=O)NC2=O)C3=O)C1)C[C@H]1CC[C@H](n2cc3cc(NC(=O)c4cccc(C(F)(F)F)n4)c(C(C)(C)O)cc3n2)CC1 (stereo partly drawn) [I-464] | 10 to 50 nM |
| Cc1cccc(C(=O)Nc2cc3sc([C@H]4CC[C@H](C(=O)N5CCN(CCCNc6cccc7c6C(=O)N(C6CCC(=O)NC6=O)C7=O)CC5)CC4)nc3cc2C(C)(C)O)n1 (stereo partly drawn) [I-465] | < 10 nM |
| COc1cc2nc([C@H]3CC[C@H](C(=O)N4CCN(CCCNc5cccc6c5C(=O)N(C5CCC(=O)NC5=O)C6=O)CC4)CC3)sc2cc1NC(=O)c1cccc(C(F)(F)F)n1 (stereo partly drawn) [I-466] | 50 to 100 nM |
| Cc1cccc(C(=O)Nc2cc3sc([C@H]4CC[C@H](CN5CCN(CCNc6cccc7c6C(=O)N(C6CCC(=O)NC6=O)C7=O)[C@@H](C)C5)CC4)nc3cc2C(C)(C)O)n1 (stereo partly drawn) [I-467] | 10 to 50 nM |
| Cc1cccc(C(=O)Nc2cc3sc([C@H]4CC[C@H](C(=O)N5CC6(CCN(CCNc7cccc8c7C(=O)N(C7CCC(=O)NC7=O)C8=O)CC6)C5)CC4)nc3cc2C(C)(C)O)n1 (stereo partly drawn) [I-468] | 10 to 50 nM |
| Cc1cccc(C(=O)Nc2cc3sc([C@H]4CC[C@H](C(=O)N5CC6(CC(CCNc7cccc8c7C(=O)N(C7CCC(=O)NC7=O)C8=O)C6)C5)CC4)nc3cc2C(C)(C)O)n1 (stereo partly drawn) [I-469] | 100 to 200 nM |
| Cc1cccc(C(=O)Nc2cc3sc([C@H]4CC[C@H](CN5CCN(CCNc6cccc7c6C(=O)N(C6CCC(=O)NC6=O)C7=O)[C@H](C)C5)CC4)nc3cc2C(C)(C)O)n1 (stereo partly drawn) [I-470] | 10 to 50 nM |
| Cc1cccc(C(=O)Nc2cc3sc([C@H]4CC[C@H](CN5CCO[C@@H](CCCNc6cccc7c6C(=O)N(C6CCC(=O)NC6=O)C7=O)C5)CC4)nc3cc2C(C)(C)O)n1 (stereo partly drawn) [I-472] | 50 to 100 nM |
| Cc1cccc(C(=O)Nc2cc3sc([C@H]4CC[C@H](CN5C[C@@H]6C[C@H]5CN6CCNc5cccc6c5C(=O)N(C5CCC(=O)NC5=O)C6=O)CC4)nc3cc2C(C)(C)O)n1 (stereo partly drawn) [I-473] | 100 to 200 nM |
| Cc1cccc(C(=O)Nc2cc3sc([C@H]4CC[C@H](C(=O)N5CCC6(CC5)CC(CCNc5cccc7c5C(=O)N(C5CCC(=O)NC5=O)C7=O)C6)CC4)nc3cc2C(C)(C)O)n1 (stereo partly drawn) [I-474] | > 200 nM |
| Cc1cccc(C(=O)Nc2cc3sc([C@H]4CC[C@H](CN5C[C@H]6C[C@@H]5CN6CCNc5cccc6c5C(=O)N(C5CCC(=O)NC5=O)C6=O)CC4)nc3cc2C(C)(C)O)n1 (stereo partly drawn) [I-475] | < 10 nM |
| CN(CCCNc1cccc2c1C(=O)N(C1CCC(=O)NC1=O)C2=O)C[C@H]1CC[C@H](c2nc3cc(C(C)(C)O)c(NC(=O)c4cncc(Cl)c4)cc3s2)CC1 (stereo partly drawn) [I-476] | > 200 nM |
